Consider one compound from publication PMC7241567 (Journal of Enzyme Inhibition and Medicinal Chemistry, 2020).

“Also recorded” adds a separate entry of the source.

Type in all cases: biochemical
One test addresses FLT3 (F594_R595 ins EY) (Homo sapiens, UniProt P36888). In words: Enzymatic activity against FLT3 mutants.
The target in test [1] is T1, FLT3 (Y591_V592 ins VDFREYEYD) (Homo sapiens, UniProt P36888, INS591VDFREYEYD).
T1 construct: purchased Reaction Biology Corp. (Kinase HotSpot service)
In words: Enzymatic activity against FLT3 mutants.

In another test the target is T2, AXL (R499C) (Homo sapiens, UniProt P30530, R499C).
T2 construct: purchased Reaction Biology Corp. (Kinase HotSpot service)
In words: Reaction Biology Kinase HotSpot radiometric kinase assay.

The target in a further test is T3, EGFR (Homo sapiens, UniProt P00533).
T3 construct: purchased Reaction Biology Corp. (Kinase HotSpot service)
Described as above.

Another test has as its target T4, AKT1 (Homo sapiens, UniProt P31749).
T4 construct: purchased Reaction Biology Corp. (Kinase HotSpot service)
The test is described as above.

In another test the target is T5, FGFR3 (Homo sapiens, UniProt P22607).
T5 construct: purchased Reaction Biology Corp. (Kinase HotSpot service)
The test is described as above.

A further test has as its target T6, FLT3 (F594_R595 ins R) (Homo sapiens, UniProt P36888, INS594R).
T6 construct: purchased Reaction Biology Corp. (Kinase HotSpot service)
Nature of the test: Enzymatic activity against FLT3 mutants.

The target of the next test is T7, LYN (Homo sapiens, UniProt P07948).
T7 construct: purchased Reaction Biology Corp. (Kinase HotSpot service)
Nature of the test: Reaction Biology Kinase HotSpot radiometric kinase assay.

The target in the next test is T8, LCK (Homo sapiens, UniProt P06239).
T8 construct: purchased Reaction Biology Corp. (Kinase HotSpot service)
Described as above.

The target in another test is T9, Aurora A (Homo sapiens, UniProt O14965).
T9 construct: purchased Reaction Biology Corp. (Kinase HotSpot service)
Described as above.

For another test, the target named is T10, BTK (Homo sapiens, UniProt Q06187).
T10 construct: purchased Reaction Biology Corp. (Kinase HotSpot service)
Described as above.

In the next test the target is T11, FLT3 (Homo sapiens, UniProt P36888).
T11 construct: purchased Reaction Biology Corp. (Kinase HotSpot service)
T11 sequence (P36888 27-993): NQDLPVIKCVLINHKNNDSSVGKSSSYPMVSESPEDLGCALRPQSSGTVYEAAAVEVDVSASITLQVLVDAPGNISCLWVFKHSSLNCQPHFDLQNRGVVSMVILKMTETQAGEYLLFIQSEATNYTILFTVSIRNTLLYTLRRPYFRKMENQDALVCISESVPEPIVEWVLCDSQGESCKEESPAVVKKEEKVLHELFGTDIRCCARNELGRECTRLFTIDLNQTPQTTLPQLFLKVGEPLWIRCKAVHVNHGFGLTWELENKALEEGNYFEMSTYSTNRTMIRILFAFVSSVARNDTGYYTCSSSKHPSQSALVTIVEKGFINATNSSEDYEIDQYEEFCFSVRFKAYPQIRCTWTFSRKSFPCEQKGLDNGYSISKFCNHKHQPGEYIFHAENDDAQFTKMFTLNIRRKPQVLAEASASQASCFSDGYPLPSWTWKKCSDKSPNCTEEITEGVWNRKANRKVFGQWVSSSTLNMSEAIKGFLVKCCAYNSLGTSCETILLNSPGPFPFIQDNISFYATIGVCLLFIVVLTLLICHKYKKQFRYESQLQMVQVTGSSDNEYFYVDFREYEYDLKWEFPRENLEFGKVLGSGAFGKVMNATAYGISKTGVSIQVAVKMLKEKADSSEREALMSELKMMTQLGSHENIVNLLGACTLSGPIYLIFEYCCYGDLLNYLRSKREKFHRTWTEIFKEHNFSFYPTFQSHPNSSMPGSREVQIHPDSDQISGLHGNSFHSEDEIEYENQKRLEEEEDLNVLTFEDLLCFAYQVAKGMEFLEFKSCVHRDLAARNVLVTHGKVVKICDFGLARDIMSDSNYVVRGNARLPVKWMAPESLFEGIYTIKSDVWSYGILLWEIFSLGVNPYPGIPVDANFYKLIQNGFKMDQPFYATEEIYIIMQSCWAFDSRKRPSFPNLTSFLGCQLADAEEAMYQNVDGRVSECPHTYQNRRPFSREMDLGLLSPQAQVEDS
The test is described as above.

The next test addresses T12, BRAF (V599E) (Homo sapiens, UniProt P15056, V600E).
T12 construct: purchased Reaction Biology Corp. (Kinase HotSpot service)
The test is described as above.

The target of the next test is T13, AXL (Homo sapiens, UniProt P30530).
T13 construct: purchased Reaction Biology Corp. (Kinase HotSpot service)
Described as above.

Another test concerns the target T14, c-MET (Homo sapiens, UniProt P08581).
T14 construct: purchased Reaction Biology Corp. (Kinase HotSpot service)
Described as above.

In a further test the target is T15, CAMKK1 (Homo sapiens, UniProt Q8N5S9).
T15 construct: purchased Reaction Biology Corp. (Kinase HotSpot service)
The test is described as above.

A further test addresses T16, RIPK3 (Homo sapiens, UniProt Q9Y572).
T16 construct: purchased Reaction Biology Corp. (Kinase HotSpot service)
The test is described as above. The settings on record: 10 µM.

A further test addresses T17, ABL1 (Homo sapiens, UniProt P00519).
T17 construct: purchased Reaction Biology Corp. (Kinase HotSpot service)
Described as above.

Another test has as its target T18, RON/MST1R (Homo sapiens, UniProt Q04912).
T18 construct: purchased Reaction Biology Corp. (Kinase HotSpot service)
Described as above.

In another test the target is T19, PKA (Homo sapiens, UniProt P17612).
T19 construct: purchased Reaction Biology Corp. (Kinase HotSpot service)
Described as above.

The next test addresses T20, CDK4/cyclin D1 (Homo sapiens, UniProt P11802).
T20 construct: purchased Reaction Biology Corp. (Kinase HotSpot service)
The test is described as above.

The target in another test is T21, KDR/VEGFR2 (Homo sapiens, UniProt P35968).
T21 construct: purchased Reaction Biology Corp. (Kinase HotSpot service)
Described as above.

T21 sequence (P35968 20-1356): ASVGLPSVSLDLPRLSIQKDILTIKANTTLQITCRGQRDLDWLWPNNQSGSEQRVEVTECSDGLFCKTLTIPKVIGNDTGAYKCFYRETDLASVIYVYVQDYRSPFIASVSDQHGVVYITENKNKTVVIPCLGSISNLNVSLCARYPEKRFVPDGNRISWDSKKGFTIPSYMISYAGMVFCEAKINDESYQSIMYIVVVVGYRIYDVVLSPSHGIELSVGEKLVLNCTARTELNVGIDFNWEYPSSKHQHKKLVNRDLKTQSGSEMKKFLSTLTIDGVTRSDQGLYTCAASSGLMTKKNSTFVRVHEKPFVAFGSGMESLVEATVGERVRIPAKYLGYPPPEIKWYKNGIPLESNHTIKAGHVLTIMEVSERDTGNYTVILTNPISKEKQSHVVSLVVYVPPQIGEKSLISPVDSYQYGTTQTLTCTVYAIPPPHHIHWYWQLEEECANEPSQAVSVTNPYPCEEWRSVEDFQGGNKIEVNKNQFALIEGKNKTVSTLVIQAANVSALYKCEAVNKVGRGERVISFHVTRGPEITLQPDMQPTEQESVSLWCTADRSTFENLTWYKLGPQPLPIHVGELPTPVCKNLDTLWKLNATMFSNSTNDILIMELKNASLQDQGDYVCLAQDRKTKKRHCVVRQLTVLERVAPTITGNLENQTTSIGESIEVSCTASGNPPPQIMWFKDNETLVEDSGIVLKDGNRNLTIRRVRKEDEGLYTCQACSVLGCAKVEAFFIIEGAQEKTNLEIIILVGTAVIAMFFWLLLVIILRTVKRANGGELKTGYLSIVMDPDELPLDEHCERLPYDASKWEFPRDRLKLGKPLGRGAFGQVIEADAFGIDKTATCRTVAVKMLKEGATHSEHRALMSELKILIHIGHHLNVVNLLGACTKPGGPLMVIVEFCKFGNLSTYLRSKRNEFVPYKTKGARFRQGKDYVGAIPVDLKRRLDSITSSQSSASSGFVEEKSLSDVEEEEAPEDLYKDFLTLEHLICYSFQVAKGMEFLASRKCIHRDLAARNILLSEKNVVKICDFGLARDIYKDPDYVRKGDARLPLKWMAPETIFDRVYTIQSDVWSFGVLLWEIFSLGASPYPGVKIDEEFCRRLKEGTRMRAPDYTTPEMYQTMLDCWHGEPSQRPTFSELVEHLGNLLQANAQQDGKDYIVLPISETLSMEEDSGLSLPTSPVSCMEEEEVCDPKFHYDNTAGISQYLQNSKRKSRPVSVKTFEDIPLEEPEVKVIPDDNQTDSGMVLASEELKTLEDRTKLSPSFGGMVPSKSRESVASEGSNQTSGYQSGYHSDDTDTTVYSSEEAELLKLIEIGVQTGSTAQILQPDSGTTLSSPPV
T17 sequence (P00519 whole entry): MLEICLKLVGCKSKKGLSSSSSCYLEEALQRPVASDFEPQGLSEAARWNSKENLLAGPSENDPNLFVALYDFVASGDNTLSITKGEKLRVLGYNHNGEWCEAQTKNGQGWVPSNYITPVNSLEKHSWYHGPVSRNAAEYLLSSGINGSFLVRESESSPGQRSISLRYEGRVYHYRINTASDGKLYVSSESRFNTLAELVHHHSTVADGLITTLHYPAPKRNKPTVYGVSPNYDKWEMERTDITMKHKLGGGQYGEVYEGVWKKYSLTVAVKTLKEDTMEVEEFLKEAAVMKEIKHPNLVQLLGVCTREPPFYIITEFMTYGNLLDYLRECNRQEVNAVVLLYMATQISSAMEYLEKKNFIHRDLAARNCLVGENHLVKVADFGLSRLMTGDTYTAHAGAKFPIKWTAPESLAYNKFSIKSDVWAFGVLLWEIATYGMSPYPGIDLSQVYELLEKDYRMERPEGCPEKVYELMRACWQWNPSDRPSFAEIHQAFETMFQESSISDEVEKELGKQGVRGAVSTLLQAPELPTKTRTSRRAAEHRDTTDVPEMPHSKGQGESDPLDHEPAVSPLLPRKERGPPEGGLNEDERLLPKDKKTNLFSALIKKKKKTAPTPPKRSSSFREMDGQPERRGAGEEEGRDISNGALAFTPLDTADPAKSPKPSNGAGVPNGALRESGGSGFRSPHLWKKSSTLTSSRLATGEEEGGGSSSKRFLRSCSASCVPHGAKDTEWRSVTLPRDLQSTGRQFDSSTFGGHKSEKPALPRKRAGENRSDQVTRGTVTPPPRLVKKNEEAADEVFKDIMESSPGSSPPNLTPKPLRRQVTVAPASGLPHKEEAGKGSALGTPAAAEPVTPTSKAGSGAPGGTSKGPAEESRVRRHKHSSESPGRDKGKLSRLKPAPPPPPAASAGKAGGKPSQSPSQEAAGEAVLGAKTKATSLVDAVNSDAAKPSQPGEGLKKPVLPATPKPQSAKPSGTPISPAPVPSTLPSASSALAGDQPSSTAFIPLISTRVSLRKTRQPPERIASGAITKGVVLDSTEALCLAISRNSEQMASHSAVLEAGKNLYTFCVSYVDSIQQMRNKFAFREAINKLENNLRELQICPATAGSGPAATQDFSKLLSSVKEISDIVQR
T9 sequence (O14965 whole entry): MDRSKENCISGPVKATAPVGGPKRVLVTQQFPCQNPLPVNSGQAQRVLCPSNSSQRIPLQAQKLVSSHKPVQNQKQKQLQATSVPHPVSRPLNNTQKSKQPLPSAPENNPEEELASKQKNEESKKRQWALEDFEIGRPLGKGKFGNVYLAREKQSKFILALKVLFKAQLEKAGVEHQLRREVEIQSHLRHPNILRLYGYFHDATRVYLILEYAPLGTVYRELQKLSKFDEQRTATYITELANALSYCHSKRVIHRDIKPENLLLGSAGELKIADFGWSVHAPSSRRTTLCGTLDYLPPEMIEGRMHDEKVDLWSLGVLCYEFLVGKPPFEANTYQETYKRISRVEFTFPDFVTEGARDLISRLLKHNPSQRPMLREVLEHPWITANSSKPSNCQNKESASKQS
T4 sequence (P31749 whole entry): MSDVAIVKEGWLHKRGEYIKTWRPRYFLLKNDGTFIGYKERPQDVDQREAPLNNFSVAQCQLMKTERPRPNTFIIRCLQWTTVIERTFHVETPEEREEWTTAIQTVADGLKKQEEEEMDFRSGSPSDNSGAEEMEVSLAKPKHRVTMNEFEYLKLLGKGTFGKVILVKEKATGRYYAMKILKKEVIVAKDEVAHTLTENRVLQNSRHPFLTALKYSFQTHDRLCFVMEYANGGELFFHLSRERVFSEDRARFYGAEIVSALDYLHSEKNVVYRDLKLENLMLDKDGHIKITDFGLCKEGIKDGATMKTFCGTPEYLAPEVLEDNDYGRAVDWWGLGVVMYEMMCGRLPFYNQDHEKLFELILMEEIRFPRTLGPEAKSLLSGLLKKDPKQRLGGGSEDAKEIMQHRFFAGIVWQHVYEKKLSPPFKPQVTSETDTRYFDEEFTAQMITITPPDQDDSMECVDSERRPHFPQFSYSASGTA
T10 sequence (Q06187 whole entry): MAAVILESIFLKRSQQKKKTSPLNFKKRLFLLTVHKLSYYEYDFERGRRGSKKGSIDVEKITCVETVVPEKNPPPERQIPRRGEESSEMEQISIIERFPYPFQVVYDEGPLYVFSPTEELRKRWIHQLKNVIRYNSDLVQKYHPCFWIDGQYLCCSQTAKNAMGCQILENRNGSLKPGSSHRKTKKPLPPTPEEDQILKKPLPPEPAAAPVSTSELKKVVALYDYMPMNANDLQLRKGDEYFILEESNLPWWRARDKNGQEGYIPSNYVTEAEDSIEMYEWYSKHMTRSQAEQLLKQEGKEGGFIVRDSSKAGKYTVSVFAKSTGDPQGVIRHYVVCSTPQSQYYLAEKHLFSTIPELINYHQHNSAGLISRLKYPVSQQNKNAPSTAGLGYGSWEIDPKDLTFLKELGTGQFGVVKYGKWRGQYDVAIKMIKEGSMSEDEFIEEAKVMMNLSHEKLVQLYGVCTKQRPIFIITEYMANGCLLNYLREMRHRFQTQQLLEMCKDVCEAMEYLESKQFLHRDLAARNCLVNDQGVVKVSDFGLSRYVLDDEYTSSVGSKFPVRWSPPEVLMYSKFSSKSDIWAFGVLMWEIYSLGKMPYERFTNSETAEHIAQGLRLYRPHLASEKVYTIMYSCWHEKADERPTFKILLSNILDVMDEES
T7 sequence (P07948 whole entry): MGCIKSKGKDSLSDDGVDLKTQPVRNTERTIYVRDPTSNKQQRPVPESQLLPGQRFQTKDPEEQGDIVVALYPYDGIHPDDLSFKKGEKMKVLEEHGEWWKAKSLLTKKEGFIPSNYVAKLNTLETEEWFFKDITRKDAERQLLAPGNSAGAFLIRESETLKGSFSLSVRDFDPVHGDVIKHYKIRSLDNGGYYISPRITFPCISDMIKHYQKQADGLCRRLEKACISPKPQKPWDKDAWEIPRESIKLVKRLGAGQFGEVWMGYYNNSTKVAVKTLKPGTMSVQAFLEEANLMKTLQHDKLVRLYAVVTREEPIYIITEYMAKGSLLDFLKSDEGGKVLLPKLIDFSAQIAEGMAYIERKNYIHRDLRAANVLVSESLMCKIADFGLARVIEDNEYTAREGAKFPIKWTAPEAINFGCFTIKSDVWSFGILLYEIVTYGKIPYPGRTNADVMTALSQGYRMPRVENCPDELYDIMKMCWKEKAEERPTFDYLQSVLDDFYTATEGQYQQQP
T15 sequence (Q8N5S9 whole entry): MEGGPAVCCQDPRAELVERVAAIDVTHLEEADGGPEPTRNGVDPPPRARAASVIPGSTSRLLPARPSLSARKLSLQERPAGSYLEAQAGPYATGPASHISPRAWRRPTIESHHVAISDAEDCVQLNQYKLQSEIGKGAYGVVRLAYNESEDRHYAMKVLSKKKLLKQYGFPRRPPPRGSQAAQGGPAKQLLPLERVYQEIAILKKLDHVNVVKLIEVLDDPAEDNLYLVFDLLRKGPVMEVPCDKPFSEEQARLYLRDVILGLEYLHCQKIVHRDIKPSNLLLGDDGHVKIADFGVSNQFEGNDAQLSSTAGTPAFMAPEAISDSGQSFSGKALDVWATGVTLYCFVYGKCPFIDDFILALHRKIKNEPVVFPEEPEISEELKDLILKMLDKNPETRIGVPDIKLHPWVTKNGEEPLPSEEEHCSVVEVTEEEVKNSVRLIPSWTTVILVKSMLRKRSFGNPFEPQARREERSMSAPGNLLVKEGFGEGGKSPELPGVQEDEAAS

What is called IC50 is the concentration needed to halve the response being measured. The inhibition is the share of the control response that was lost under treatment. A high value points to a response far below the control. As to `Cc1oncc1C(=O)Nc1ccc2cnc(-c3cc(N4CCN(C)CC4)cc(C(F)(F)F)c3)nc2c1` [Compound 7d, 5-methyl-N-(2-(3-(4-methylpiperazin-1-yl)-5-(trifluoromethyl)phenyl)quinazolin-7-yl)isoxazole-4-carboxamide], the IC50 against FLT3 (F594_R595 ins EY) is 495 nM; in [1] it was 728 nM; against FLT3 (F594_R595 ins R), 524 nM; at FLT3 (FLT3 wild type, read-out: IC50 against FLT3), 106 nM. Also, the inhibition at 10 µM against AXL (R499C) is 10.1%; at EGFR it was 0%; on AKT1, 5.48%; on FGFR3 it was 1%; against LYN it was 20.5%; on LCK it was 19.7%. The inhibition at 10 µM against Aurora A was 20.1%; against BTK, 17.5%; against FLT3 it was 96.6%; against BRAF (V599E) it was 5.19%; at AXL it was 21.2%; at c-MET it was 13.2%. Moreover, the inhibition at 10 µM was 0% against CAMKK1; 12.8% at RIPK3; 6.46% at ABL1; 13.5% against RON/MST1R; 2.5% at PKA; 3.01% on CDK4/cyclin D1. The compound also had an inhibition at 10 µM on KDR/VEGFR2 of 16.8%. The “inhibitory activity towards FLT3 (in words)” value against FLT3 was “maintained the activity; also recorded: maintained inhibitory activity”.
